Values of other authors as cited in US20080255091A1, “COMPOUNDS TO TREAT AMYLOIDOSIS AND PREVENT DEATH OF BETA-CELLS IN TYPE 2 DIABETES MELLITUS” (ASTRUM THERAPEUTICS PTY LTD., priority 2005, published 2008).

System: β-cell death induced by a fibrillogenic form of IAPP

Row | Molecule | prevention of β-cell death induced by a fibrillogenic form of IAPP
1 | Nc1c(/N=N/c2ccc(-c3ccc(/N=N/c4cc(S(=O)(=O)O)c5ccccc5c4N)cc3)cc2)cc(S(=O)(=O)O)c2ccccc12 [Congo Red] | completely or partially prevented
2 | SNNFGA: the peptide SNNFGA, anti-amyloidosis agent from the literature (Islet amyloid polypeptide; UniProt P10997 53-58, looked up, fragment) | completely or partially prevented
